Values of other authors in patent US20030008923A1, “Antineoplastic combinations” (Wyeth, priority 2001, published 2003).

How the values were obtained:
[1] = system: histologically diverse tumor cells
[2] = system: human glioblastoma cell line; settings: human glioblastoma cell line in vitro
mTOR = mTOR (Homo sapiens, UniProt P42345+P62942); settings: growth factor stimulated cells, Western blot

Compound | growth of tumor cells in vitro ([1]; histologically diverse tumor cells) | cell cycle effect ([1]; in vitro) | growth factor (platelet-derived)-induced stimulation [2] | activity against human tumor xenografts of diverse histological types (human tumor xenografts; nude mice) | growth of several human pancreatic tumors (human tumor xenografts; nude mice) | activity in orthotopic glioma model (human tumor xenografts; orthotopic glioma model in nude mice) | phosphorylation of serine 389 of p70s6 kinase (mTOR)
CO[C@H]1C[C@@H]2CC[C@@H](C)[C@@](O)(O2)C(=O)C(=O)N2CCCC[C@H]2C(=O)O[C@H]([C@H](C)C[C@@H]2CC[C@@H](OC(=O)C(C)(CO)CO)[C@H](OC)C2)CC(=O)[C@H](C)/C=C(\C)[C@@H](O)[C@@H](OC)C(=O)[C@H](C)C[C@H](C)/C=C/C=C/C=C/1C [CCI-779, Rapamycin 42-ester with 3-hydroxy-2-(hydroxymethyl)-2-methylpropionic acid] | inhibit the growth | arrested cells in the G1 phase | markedly suppressed | has activity | inhibited | active | 
CO[C@H]1C[C@@H]2CC[C@@H](C)[C@@](O)(O2)C(=O)C(=O)N2CCCC[C@H]2C(=O)O[C@H]([C@H](C)C[C@@H]2CC[C@@H](O)[C@H](OC)C2)CC(=O)[C@H](C)/C=C(\C)[C@@H](O)[C@@H](OC)C(=O)[C@H](C)C[C@H](C)/C=C/C=C/C=C/1C [rapamycin] |  |  |  |  |  |  | completely blocks
